The values that follow come from ChEMBL document CHEMBL5137132, “Ulleungdolin, a Polyketide-Peptide Hybrid Bearing a 2,4-Di-O-methyl-β-d-antiarose from Streptomyces sp. 13F051 Co-cultured with Leohumicola minima 15S071” (2022).

The subject of experiment [1] is MDA-MB-231. Put plainly: Anti-migration activity against human MDA-MB-231 cells assessed as inhibition of cell migration at 25 uM incubated for 18 hrs by wound healing assay. Type of experiment: functional.
The subject of experiment [2] is MDA-MB-231. Put plainly: Anti-migration activity against human MDA-MB-231 cells assessed as inhibition of cell migration at 10 uM incubated for 18 hrs by wound healing assay. Type of experiment: functional.

The term inhibition denotes the percentage by which the read-out fell short of the control. Regarding `CO[C@@H]1[C@@H](O)[C@@H](OC)[C@H](Oc2cccc3c2C(=O)N([C@@]2(C(=O)N[C@H](C(=O)N[C@H](C(=O)O)c4ccc(O)cc4)[C@H](O)CC(N)=O)C[C@@H]2C)[C@H]3CCCCCCCC(=O)O)O[C@@H]1C`, the inhibition at 25 µM in the experiment with MDA-MB-231 [1] was 100%. In the experiment on MDA-MB-231 [2], the inhibition at 10 µM came to 42%.
